Measurements from patent US20200407398A1, “Short Proline-Rich Lipopeptide Potentiates Minocycline and Rifampicin Against Multidrug-and Extensively Drug-Resistant Pseudomonas Aeruginosa” (priority 2018, published 2020).
pIC50: −log10 of the molar value. Peptide text beside a SMILES is read from it. * marks the point of attachment. Palmitoyl = CCCCCCCCCCCCCCCC(=O)*

Assays:
pig erythrocytes = assay type: cell-based
In short: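 Washed pig erythrocytes in PBS were mixed with 2-fold serial dilutions of peptide and incubated for 1 h at 37° C. Released hemoglobin in the supernatant was read at 570 nm, with PBS and 0.1% Triton X-100 as controls. MHC was the minimum concentration giving 5% hemolysis.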

Gram-positive bacteria = assay: Microbroth dilution MIC, range over panel; assay type: cell-based; conditions: against Gram-positive bacteria of the panel
Protocol: (§1) The synthesized SPRLPs were evaluated for their antibacterial potency against a panel of Gram-positive and Gram-negative bacteria (Tables 2 & 3). Some of the included pathogens were collected from patients visiting or admitted to participating Canadian hospitals through the CAN-ICU (27) and CANWARD (28) national surveillance studies. Antibacterial activity was assessed using minimum inhibitory concentration (MIC) against various clinical pathogens.
(§2) Microbroth dilution susceptibility test following the Clinical and Laboratory Standards Institute (CLSI) guidelines (32) was performed to assess the in vitro antibacterial activity of SPRLPs. Overnight grown bacterial cultures were diluted in saline to achieve a 0.5 McFarland turbidity, followed by 1:50 dilution in Mueller-Hinton broth (MHB) for inoculation to a final concentration of 5×10^5 colony forming units/mL. The assay was done on a 96-well plate to which the agents of interest were 2-fold serially diluted in MHB and incubated with equal volumes of inoculum at 37° C. for 18 hours. MIC was determined as the lowest concentration to inhibit visible bacterial growth in form of turbidity, which was confirmed using EMax Plus microplate reader (Molecular Devices, USA) at a wavelength of 590 nm. The well containing MHB broth with or without bacterial cells was used as positive or negative control, respectively.

[1] = tested on: Gram-negative bacteria E. coli; assay: Microbroth dilution MIC, range over strains; assay type: cell-based; conditions: against the E. coli strains of the panel
Protocol: as §1, §2

[2] = tested on: wild-type and MDR/XDR P. aeruginosa clinical isolates; conditions: checkerboard assay; P. aeruginosa
Protocol: We evaluated the activity of SPRLPs in combination with fifteen clinically-used antibiotics against P. aeruginosa. Antibiotics tested included fluoroquinolones (moxifloxacin, ciprofloxacin and levofloxacin), aminoglycosides (gentamicin, tobramycin and amikacin), cephalosporins (ceftazidime and cefotaxime), carbapenems (meropenem and doripenem), aztreonam, rifampicin, minocycline, colistin and fosfomycin. The SPRLPs were screened initially at a fixed concentration of 8 μg/mL (5 μM) in combination with antibiotics against wild-type P. aeruginosa PAO1. We assessed potentiation by at least a four-fold absolute MIC reduction of the antibiotic, after which synergism was further validated by a conventional checkerboard assay. A fractional inhibitory concentration (FIC) index of ≤0.5, 0.5<x≤4 or >4 was interpreted as synergistic, indifferent or antagonistic interaction, respectively (31). FIC index was obtained by adding the FIC values of the antibiotic and the SPRLP adjuvant. FIC of antibiotics was calculated by dividing the MIC of the antibiotic in the presence of the adjuvant by the MIC of the antibiotic alone. Similarly, the FIC of adjuvant was calculated via dividing the MIC of the adjuvant in the presence of the antibiotic by the MIC of the adjuvant alone.
Isolates used in this study were either obtained from the American Type Culture Collection (ATCC), the Canadian National Intensive Care Unit (CAN-ICU) surveillance study (27) or the Canadian Ward Surveillance (CANWARD) study (28). Clinical isolates belonging to the CAN-ICU and CANWARD studies were recovered from patients suffering a presumed infectious disease entering or admitted in a participating medical center across Canada during the time of study. MDR P. aeruginosa strains in this study refer to those that are resistant to aminoglycosides, fluoroquinolones, cephalosporins, and carbapenems while XDR strains are those that are resistant to aminoglycosides, fluoroquinolones, cephalosporins, carbapenems, aztreonam and penicillin+β-lactamase inhibitor combination (39, 40).
as §2
The assay was performed on a 96-well plate, to which the agents of interest was 2-fold serially diluted in working MHB. Prior to serial dilution, SPRLP was added to the working MHB media so that a fixed final concentration of 8 μg/mL (5 μM) SPRLP per well was achieved. To ensure that the assay was working, the MIC determination test of the studied antibiotic (without SPRLP) was included on the same plate. Similar MIC results between the assay comparator and an independent MIC determination test (on a different plate) ensured validity of the synergy test. Overnight grown bacterial cultures were diluted in saline to 0.5 McFarland turbidity, followed by 1:50 dilution in MHB (without SPRLP) and inoculation into each well to a final concentration of approximately 5×10^5 colony forming units/mL. Wells containing only MHB (without SPRLP) with or without bacterial cells were used as positive or negative control, respectively.

[3] = tested on: P. aeruginosa wild-type PAO1; assay type: cell-based
In short: (§3)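 CLSI broth microdilution with 2-fold serial dilutions in Mueller-Hinton broth, inoculum 5×10^5 CFU/mL, incubated 18 hours at 37° C. MIC taken as lowest concentration with no visible turbidity, confirmed by absorbance at 590 nm.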

E. coli ATCC 25922 = assay type: cell-based
In short: as §3

[4] = tested on: methicillin-resistant S. epidermidis CAN-ICU 61589 (ceftazidime-resistant); assay type: cell-based; conditions: methicillin-resistant CAN-ICU 61589 (ceftazidime-resistant)
In short: as §3

[5] = tested on: P. aeruginosa CANWARD-2011 96846 (gentamicin-, tobramycin-resistant); assay type: cell-based
In short: as §3

[6] = tested on: S. maltophilia CAN-ICU 62584; assay type: cell-based
In short: as §3

[7] = tested on: P. aeruginosa CAN-ICU 62308 (gentamicin-resistant); assay type: cell-based
In short: as §3

[8] = tested on: A. baumannii CAN-ICU 63169; assay type: cell-based
In short: as §3

[9] = tested on: E. coli CAN-ICU 63074 (amikacin-intermediate resistant); assay type: cell-based
In short: as §3

[10] = tested on: E. coli CAN-ICU 61714 (gentamicin-resistant); assay type: cell-based
In short: as §3

E. faecium ATCC 27270 = assay type: cell-based
In short: as §3

[11] = tested on: methicillin-susceptible Staphylococcus epidermidis CANWARD-2008 81388; assay type: cell-based; conditions: methicillin-susceptible CANWARD-2008 81388
In short: as §3

S. aureus ATCC 29213 = assay type: cell-based
In short: as §3

[12] = tested on: E. coli CANWARD-2011 97615 (gentamicin-, tobramycin-, ciprofloxacin-resistant) aac(3′)iia; assay type: cell-based
In short: as §3

E. faecalis ATCC 29212 = assay type: cell-based
In short: as §3

K. pneumoniae ATCC 13883 = assay type: cell-based
In short: as §3

[13] = tested on: methicillin-resistant S. aureus ATCC 33592; assay type: cell-based
In short: as §3

P. aeruginosa ATCC 27853 = assay type: cell-based
In short: as §3

[14] = tested on: human liver carcinoma HepG2 cells; assay type: cell-based; conditions: read-out: IC50, inhibition of proliferation
Protocol: The CyQuant Direct cell proliferation assay kit (ThermoFisher, Canada) was used to assess the effect of C12-PRP on cell proliferation according to the manufacturer's protocol. Briefly, human embryonic kidney cells (HEK-293) and HepG2 cells were grown in Dulbecco's Modified Eagle's Medium supplemented with 10% fetal bovine serum. The cells were dispersed into 96-well plates (8000 cells/well in 100 μl ). Wells with media but no cells were used as blanks. After 24 hours, varying concentrations of C12-PRP, colistin and Adriamycin® were added to the wells containing cells but also the blanks. After incubation of the cells with the compounds for 48 hours, the CyQuant Direct detection reagent was added to the wells. Plates were incubated at 37° C. for 1 hour and the fluorescence (Excitation 480nm/Emission 535 nm) was read using a SpectraMax M2e (Molecular Devices, USA). As a positive control, CyQuant Direct detection reagent was added to a plate with untreated cells, incubated for 1 hour followed by fluorescence reading. The number of cells in each well was determined by detaching the cells by trypsin followed by counting on a CoulterZM counter to ensure an approximate equal number of cells per well.

| Molecule | MHC (minimum concentration that resulted in 5% red blood cell hemolysis) (pig erythrocytes) | MIC range (Gram-positive bacteria) | MIC [3] | MIC (E. coli ATCC 25922) | MIC [4] | MIC [5] | MIC [6] | MIC [7] | MIC [8] | MIC [9] | MIC [10] | MIC (E. faecium ATCC 27270) | MIC [11] | MIC (S. aureus ATCC 29213) | MIC [12] | MIC (E. faecalis ATCC 29212) | MIC (K. pneumoniae ATCC 13883) | MIC [13] | MIC (P. aeruginosa ATCC 27853) | other results |
| --- | --- | --- | --- | --- | --- | --- | --- | --- | --- | --- | --- | --- | --- | --- | --- | --- | --- | --- | --- | --- |
| CCCCCCCCCCCCCCCC(=O)N1CCC[C@H]1C(=O)N[C@@H](CCCNC(=N)N)C(=O)N1CCC[C@H]1C(=O)N[C@@H](CCCNC(=N)N)C(=O)N1CCC[C@H]1C(=O)N[C@@H](CCCNC(=N)N)C(=O)N1CCC[C@H]1C(N)=O [Compound C16-PRP, CH3(CH2)14CO-PRPRPRP-NH2] (Palmitoyl-PRPRPRP-NH2) | 16 µg/mL | 4 to 16 µg/mL | 32 µg/mL | 16 µg/mL | 8 µg/mL | 64 µg/mL | 64 µg/mL | 32 µg/mL | 16 µg/mL | 8 µg/mL | 8 µg/mL | 8 µg/mL | 4 µg/mL | 8 µg/mL | 8 µg/mL | 16 µg/mL | 64 µg/mL | 16 µg/mL | 32 µg/mL | MIC range [1]: 8 to 16 µg/mL; interaction with minocycline (in words) [2]: indifferent interaction; interaction with rifampicin (in words) [2]: indifferent interaction |
| CCCCCCCCCCCCCCCC(=O)N1CCC[C@H]1C(=O)N[C@@H](CCCNC(=N)N)C(=O)N1CCC[C@H]1C(=O)N[C@@H](Cc1c[nH]c2ccccc12)C(=O)N1CCC[C@H]1C(=O)N[C@@H](CCCNC(=N)N)C(=O)N1CCC[C@H]1C(N)=O [Compound C16-PWP, CH3(CH2)14CO-PRPWPRP-NH2] (Palmitoyl-PRPWPRP-NH2) | 16 µg/mL | 4 to 8 µg/mL | 32 µg/mL | 32 µg/mL | 8 µg/mL | 64 µg/mL | 64 µg/mL | 64 µg/mL | 64 µg/mL | 16 µg/mL | 32 µg/mL | 8 µg/mL | 4 µg/mL | 8 µg/mL | 64 µg/mL | 8 µg/mL | 64 µg/mL | 8 µg/mL | 64 µg/mL | – |
| colistin | – | – | – | – | – | – | – | – | – | – | – | – | – | – | – | – | – | – | – | pIC50 [14]: 5.82 |
